Laboratory results published in ChEMBL document CHEMBL1201862, “PubChem BioAssay data set” (2004).
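A five-concentration, 48-hour dose response in 96-well plates underlies each endpoint, interpolated linearly between surrounding concentrations. GI50: concentration for 50% inhibition of growth.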 Active and inactive are the calls of the source. Cut-off read from the data, not from the text of the source: active = GI50 up to about 1.1 µM and inactive = higher.

How the values were obtained:
Assay in all cases: growth of human tumour cells (NCI), 48 h
[1] = test system: NCI-H23
[2] = test system: OVCAR-4
[3] = test system: HT-29
[4] = test system: SK-MEL-28
[5] = test system: UACC-257
[6] = test system: KM12
[7] = test system: OVCAR-5
[8] = test system: A498
[9] = test system: HOP-62
[10] = test system: BT-549
[11] = test system: COLO 205
[12] = test system: Hs-578T
[13] = test system: SF-539
[14] = test system: A549
[15] = test system: LOX IMVI
[16] = test system: T47D
[17] = test system: HCT-15
[18] = test system: NCI-H460
[19] = test system: 786-0
[20] = test system: MCF7
[21] = test system: NCI-H226
[22] = test system: SF-268
[23] = test system: RXF 393
[24] = test system: U-251
[25] = test system: SNB-75
[26] = test system: Malme-3M
[27] = test system: UO-31
[28] = test system: UACC-62
[29] = test system: SF-295
[30] = test system: HCT-116
[31] = test system: PC-3
[32] = test system: CCRF-CEM
[33] = test system: HCC 2998
[34] = test system: RPMI-8226
[35] = test system: EKVX
[36] = test system: MDA-MB-231
[37] = test system: MDA-N
[38] = test system: MDA-MB-435
[39] = test system: SK-OV-3
[40] = test system: SW-620
[41] = test system: CAKI-1
[42] = test system: OVCAR-8
[43] = test system: ACHN
[44] = test system: SK-MEL-2
[45] = test system: NCI/ADR-RES
[46] = test system: OVCAR-3
[47] = test system: SNB-19
[48] = test system: SN12C
[49] = test system: M14
[50] = test system: TK-10
[51] = test system: MOLT-4
[52] = test system: K562
[53] = test system: DU-145
[54] = test system: HL-60
[55] = test system: NCI-H522
[56] = test system: HOP-92
[57] = test system: SR
[58] = test system: IGROV-1
[59] = test system: SK-MEL-5

**Q.** What does the source list for `CC1(C)C2CCC1(C)C(N/C(=C(/C(Cl)=C(Cl)Cl)[N+](=O)[O-])n1nnc3ccccc31)C2` (configuration not stated)?
**A.** GI50 [1]: 22.4 µM (inactive); GI50 [2]: 24.1 µM (inactive); GI50 [3]: 39 µM (inactive); GI50 [4]: 36.7 µM (inactive); GI50 [5]: 38.6 µM (inactive); GI50 [6]: 21.8 µM (inactive); GI50 [7]: 29.2 µM (inactive); GI50 [8]: 19.9 µM (inactive); GI50 [9]: 24.9 µM (inactive); GI50 [10]: 22.2 µM (inactive); GI50 [11]: 18.5 µM (inactive); GI50 [12]: 17.3 µM (inactive); GI50 [13]: 33.8 µM (inactive); GI50 [14]: 33.7 µM (inactive); GI50 [15]: 33.2 µM (inactive); GI50 [16]: 32.7 µM (inactive); GI50 [17]: 27.7 µM; GI50 [18]: 37.2 µM (inactive); GI50 [19]: 41.1 µM (inactive); GI50 [20]: 32.4 µM (inactive); GI50 [21]: 19.5 µM (inactive); GI50 [22]: 17.6 µM (inactive); GI50 [23]: 19.2 µM (inactive); GI50 [24]: 19.2 µM (inactive); GI50 [25]: 28 µM (inactive); GI50 [26]: 19.3 µM (inactive); GI50 [27]: 21 µM (inactive); GI50 [28]: 20 µM (inactive); GI50 [29]: 24.3 µM (inactive); GI50 [30]: 43 µM (inactive); GI50 [31]: 21.1 µM (inactive); GI50 [32]: 21 µM (inactive); GI50 [33]: 40.6 µM (inactive); GI50 [34]: 25.7 µM (inactive); GI50 [35]: 32.4 µM (inactive); GI50 [36]: 22.5 µM (inactive); GI50 [37]: 36.4 µM (inactive); GI50 [38]: 21.4 µM (inactive); GI50 [39]: 40 µM (inactive); GI50 [40]: 27.2 µM (inactive); GI50 [41]: 18.6 µM (inactive); GI50 [42]: 29.1 µM (inactive); GI50 [43]: 20.9 µM (inactive); GI50 [44]: 22.9 µM (inactive); GI50 [45]: 27.5 µM (inactive); GI50 [46]: 12.4 µM (inactive); GI50 [47]: 25.1 µM (inactive); GI50 [48]: 41.8 µM (inactive); GI50 [49]: 37.7 µM (inactive)

**Q.** For `Cc1sc(C)c2c1C(=O)CC2N` (configuration not stated), which GI50 [50] is on record?
**A.** Its GI50 is 19.1 µM (inactive).

**Q.** And the GI50 [51]?
**A.** Its GI50 is 1.58 µM (inactive).

**Q.** What about the GI50 [1] of the same compound?
**A.** Its GI50 is 32.1 µM (inactive).

**Q.** What about the GI50 [2] of the same compound?
**A.** Its GI50 is 28 µM (inactive).

**Q.** And the GI50 [3]?
**A.** Its GI50 is 24.9 µM (inactive).

**Q.** And the GI50 [4]?
**A.** Its GI50 is > 42.7 µM (inactive).

**Q.** And the GI50 [5]?
**A.** The GI50 was 17.5 µM (inactive).

**Q.** What about the GI50 [6] of the same compound?
**A.** Its GI50 is 16.4 µM (inactive).

**Q.** And the GI50 [7]?
**A.** Its GI50 is > 100 µM (inactive).

**Q.** And the GI50 [8]?
**A.** The GI50 was > 100 µM (inactive).

**Q.** And the GI50 [9]?
**A.** Its GI50 is > 85.5 µM (inactive).

**Q.** And the GI50 [10]?
**A.** Its GI50 is 20 µM (inactive).

**Q.** And the GI50 [52]?
**A.** Its GI50 is 4.85 µM (inactive).

**Q.** And the GI50 [11]?
**A.** Its GI50 is 17.1 µM (inactive).

**Q.** And the GI50 [53]?
**A.** Its GI50 is 15.9 µM (inactive).

**Q.** And the GI50 [12]?
**A.** Its GI50 is 44.8 µM (inactive).

**Q.** What about the GI50 [13] of the same compound?
**A.** The GI50 was 3.26 µM (inactive).

**Q.** And the GI50 [14]?
**A.** Its GI50 is 29.3 µM (inactive).

**Q.** What about the GI50 [15] of the same compound?
**A.** The GI50 was 13.1 µM (inactive).

**Q.** What about the GI50 [16] of the same compound?
**A.** Its GI50 is 17.4 µM (inactive).

**Q.** What about the GI50 [17] of the same compound?
**A.** Its GI50 is 31.3 µM.

**Q.** And the GI50 [18]?
**A.** Its GI50 is 29.1 µM (inactive).

**Q.** What about the GI50 [19] of the same compound?
**A.** The GI50 was 7.98 µM (inactive).

**Q.** And the GI50 [21]?
**A.** The GI50 was > 37.8 µM (inactive).

**Q.** What about the GI50 [54] of the same compound?
**A.** The GI50 was 6.64 µM (inactive).

**Q.** And the GI50 [22]?
**A.** The GI50 was > 40.9 µM (inactive).

**Q.** And the GI50 [23]?
**A.** Its GI50 is 16.3 µM (inactive).

**Q.** And the GI50 [55]?
**A.** Its GI50 is 3.3 µM (inactive).

**Q.** And the GI50 [24]?
**A.** Its GI50 is 76.4 µM (inactive).

**Q.** And the GI50 [25]?
**A.** The GI50 was > 50.1 µM (inactive).

**Q.** What about the GI50 [26] of the same compound?
**A.** The GI50 was 13.7 µM (inactive).

**Q.** And the GI50 [27]?
**A.** The GI50 was 15.6 µM (inactive).

**Q.** And the GI50 [56]?
**A.** Its GI50 is 18.5 µM (inactive).

**Q.** What about the GI50 [28] of the same compound?
**A.** The GI50 was 75.3 µM (inactive).

**Q.** And the GI50 [57]?
**A.** Its GI50 is 4.27 µM (inactive).

**Q.** What about the GI50 [29] of the same compound?
**A.** The GI50 was > 100 µM (inactive).

**Q.** And the GI50 [30]?
**A.** The GI50 was 14.5 µM (inactive).

**Q.** What about the GI50 [31] of the same compound?
**A.** Its GI50 is 27.4 µM (inactive).

**Q.** And the GI50 [32]?
**A.** Its GI50 is 1.04 µM (active).

**Q.** And the GI50 [33]?
**A.** Its GI50 is 19.3 µM (inactive).

**Q.** What about the GI50 [34] of the same compound?
**A.** Its GI50 is 2.7 µM (inactive).

**Q.** And the GI50 [58]?
**A.** The GI50 was 34.7 µM (inactive).

**Q.** And the GI50 [35]?
**A.** The GI50 was 44.9 µM (inactive).

**Q.** What about the GI50 [36] of the same compound?
**A.** The GI50 was 22.7 µM (inactive).

**Q.** And the GI50 [37]?
**A.** The GI50 was 21.1 µM (inactive).

**Q.** What about the GI50 [38] of the same compound?
**A.** The GI50 was 20.8 µM (inactive).

**Q.** And the GI50 [39]?
**A.** The GI50 was > 76.6 µM (inactive).

**Q.** What about the GI50 [40] of the same compound?
**A.** Its GI50 is 6 µM (inactive).

**Q.** What about the GI50 [41] of the same compound?
**A.** Its GI50 is 15.1 µM (inactive).

**Q.** What about the GI50 [42] of the same compound?
**A.** Its GI50 is 21.5 µM (inactive).

**Q.** And the GI50 [43]?
**A.** Its GI50 is 16.8 µM (inactive).

**Q.** What about the GI50 [44] of the same compound?
**A.** The GI50 was > 100 µM (inactive).

**Q.** And the GI50 [45]?
**A.** The GI50 was 50.4 µM (inactive).

**Q.** And the GI50 [46]?
**A.** The GI50 was 17.5 µM (inactive).

**Q.** What about the GI50 [59] of the same compound?
**A.** The GI50 was 46.3 µM (inactive).

**Q.** What about the GI50 [47] of the same compound?
**A.** Its GI50 is > 94.4 µM (inactive).

**Q.** And the GI50 [48]?
**A.** The GI50 was 24.2 µM (inactive).

**Q.** What about the GI50 [49] of the same compound?
**A.** Its GI50 is 14.1 µM (inactive).

**Q.** What does the source list for `O=C(O)c1ccc(NC(NC(=O)C(C(F)(F)F)C(F)(F)F)(C(F)(F)F)C(F)(F)F)cc1`?
**A.** GI50 [50]: > 100 µM (inactive); GI50 [51]: > 100 µM (inactive); GI50 [1]: > 100 µM (inactive); GI50 [3]: > 100 µM (inactive); GI50 [4]: > 100 µM (inactive); GI50 [5]: > 100 µM (inactive); GI50 [7]: > 100 µM (inactive); GI50 [8]: > 100 µM (inactive); GI50 [10]: > 100 µM (inactive); GI50 [52]: > 100 µM (inactive); GI50 [11]: > 100 µM (inactive); GI50 [12]: > 100 µM (inactive); GI50 [13]: > 100 µM (inactive); GI50 [14]: > 100 µM (inactive); GI50 [15]: > 100 µM (inactive); GI50 [16]: > 100 µM (inactive); GI50 [17]: > 100 µM; GI50 [19]: > 100 µM (inactive); GI50 [54]: > 100 µM (inactive); GI50 [22]: > 100 µM (inactive); GI50 [23]: > 100 µM (inactive); GI50 [24]: > 100 µM (inactive); GI50 [25]: > 100 µM (inactive); GI50 [27]: > 100 µM (inactive); GI50 [57]: > 100 µM (inactive); GI50 [30]: > 100 µM (inactive); GI50 [31]: > 100 µM (inactive); GI50 [32]: > 100 µM (inactive); GI50 [33]: > 100 µM (inactive); GI50 [34]: > 100 µM (inactive); GI50 [58]: > 100 µM (inactive); GI50 [35]: > 100 µM (inactive); GI50 [37]: > 100 µM (inactive); GI50 [38]: > 100 µM (inactive); GI50 [39]: > 100 µM (inactive); GI50 [40]: > 100 µM (inactive); GI50 [41]: > 100 µM (inactive); GI50 [42]: > 100 µM (inactive); GI50 [43]: > 100 µM (inactive); GI50 [44]: > 100 µM (inactive); GI50 [45]: > 100 µM (inactive); GI50 [59]: > 100 µM (inactive); GI50 [47]: > 100 µM (inactive); GI50 [48]: > 100 µM (inactive); GI50 [49]: > 100 µM (inactive)
